These results are taken from patent publication US9540377B2, “2,6,7,8 substituted purines as HDM2 inhibitors” (Merck Sharp & Dohme Corp., priority 2013, dated 2017).

The structures appear in SMILES notation.

Chain of HDM2 (truncated, residues 17 to 125, containing p53 binding surface) (Q00987 17-125): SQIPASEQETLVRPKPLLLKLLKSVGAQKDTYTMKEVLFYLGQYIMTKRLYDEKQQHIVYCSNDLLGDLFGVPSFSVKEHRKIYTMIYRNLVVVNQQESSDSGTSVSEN

One test addresses HDM2 (truncated, residues 17 to 125, containing p53 binding surface) (Homo sapiens (Human), UniProt Q00987). Description: HDM2 FRET assay (inhibition of binding of FITC labeled p53-site peptide to HDM2). As to conditions: Table 16. An excerpt:
IC50 DETERMINATIONS: Dose-response curves were plotted from the inhibition data, from 10 point serial dilutions of inhibitory compounds. Concentration of compound was plotted against em520/Cem495 ratio signal. To generate IC50 values, the dose-response curves were fitted to a standard sigmoidal curve and IC50 values were derived by nonlinear regression analysis.
`Cc1nnc(C2CCCN2c2nc3nc(-c4noc(=O)[nH]4)nc(-c4cncc(Cl)c4)c3n2C[C@H]2CC[C@H](C)CC2)o1` (mixture of isomers) [Example 16.141, 3-{6-(5-chloropyridin-3-yl)-7-[(trans-4-methylcyclohexyl)methyl]-8-[2-(5-methyl-1,3,4-oxadiazol-2-yl)pyrrolidin-1-yl]-7H-purin-2-yl}-1,2,4-oxadiazol-5(4H)-one] came in with an IC50 of 26.8 nM.

The test is the same for the next values; noted with them: Table 18.
In turn, `CC([C@H]1CC[C@H](C)CC1)n1c(N2CCOC3CCCC32)nc2nc(-c3noc(=O)[nH]3)nc(-c3cccc(Cl)c3)c21` (single isomer, unassigned) [Example 18.37, 3-{6-(3-chlorophenyl)-8-(hexahydrocyclopenta[b][1,4]oxazin-4(4aH)-yl)-7-[1-(trans-4-methylcyclohexyl)ethyl]-7H-purin-2-yl}-1,2,4-oxadiazol-5(4H)-one] returned a concentration for half-maximal inhibition (IC50) of 2.21 nM.

For `CC([C@H]1CC[C@H](C)CC1)n1c(N2CCOC3CCCC32)nc2nc(-c3noc(=O)[nH]3)nc(-c3cncc(Cl)c3)c21` (single isomer, unassigned) [Example 18.53, 3-{6-(5-chloropyridin-3-yl)-8-(hexahydrocyclopenta[b][1,4]oxazin-4(4aH)-yl)-7-[1-(trans-4-methylcyclohexyl)ethyl]-7H-purin-2-yl}-1,2,4-oxadiazol-5(4H)-one], the IC50 is 7.36 nM.

The same test, now with this note: Table 23.
Regarding `COC(C)(c1cccc(Cl)c1F)c1nc2nc(-c3n[nH]c(=O)o3)nc(-c3cncc(Cl)c3)c2n1C[C@H]1CC[C@H](C)CC1` (single isomer, unassigned) [Example 23.74, 5-{8-[1-(3-chloro-2-fluorophenyl)-1-methoxyethyl]-6-(5-chloropyridin-3-yl)-7-[(trans-4-methylcyclohexyl)methyl]-7H-purin-2-yl}-1,3,4-oxadiazol-2(3H)-one], the half-maximal inhibitory concentration (IC50) was 17.8 nM. On the same count and under the same terms, the figure for `COC(C)(c1ccccn1)c1nc2nc(-c3n[nH]c(=O)o3)nc(-c3cccc(Cl)c3)c2n1C[C@H]1CC[C@H](C)CC1` (single isomer, unassigned) [Example 23.55, 5-{6-(3-chlorophenyl)-8-(1-methoxy-1-pyridin-2-ylethyl)-7-[(trans-4-methylcyclohexyl)methyl]-7H-purin-2-yl}-1,3,4-oxadiazol-2(3H)-one] is 4.26 nM; for `COc1ccccc1C(C)(F)c1nc2nc(-c3noc(=O)[nH]3)nc(-c3cncc(Cl)c3)c2n1C[C@H]1CC[C@H](C)CC1` (single isomer, unassigned) [Example 23.27, 3-{6-(5-chloropyridin-3-yl)-8-[1-fluoro-1-(2-methoxyphenyl)ethyl]-7-[(trans-4-methylcyclohexyl)methyl]-7H-purin-2-yl}-1,2,4-oxadiazol-5(4H)-one] it is 1.62 nM; for `COCC(C)(F)c1nc2nc(-c3n[nH]c(=O)o3)nc(-c3cncc(Cl)c3)c2n1C[C@H]1CC[C@H](C)CC1` (mixture of isomers) [Example 23.106, 5-{6-(5-chloropyridin-3-yl)-8-(1-fluoro-2-methoxy-1-methylethyl)-7-[(trans-4-methylcyclohexyl)methyl]-7H-purin-2-yl}-1,3,4-oxadiazol-2(3H)-one] it is 3.93 nM.

`C[C@H]1CC[C@H](Cn2c(C3(F)CCOc4cccnc43)nc3nc(-c4n[nH]c(=O)o4)nc(-c4cncc(Cl)c4)c32)CC1` (mixture of isomers) [Example 23.92, 5-{6-(5-chloropyridin-3-yl)-8-(4-fluoro-3,4-dihydro-2H-pyrano[3,2-b]pyridin-4-yl)-7-[(trans-4-methylcyclohexyl)methyl]-7H-purin-2-yl}-1,3,4-oxadiazol-2(3H)-one]: the half-maximal inhibitory concentration (IC50) was 2.45 nM. Compared with the last molecule, the IC50 is about 1.6-fold lower. With `COC(C)(c1c(F)cccc1F)c1nc2nc(-c3noc(=O)[nH]3)nc(-c3cncc(Cl)c3)c2n1C[C@H]1CC[C@H](C)CC1` (single isomer, unassigned) [Example 23.93, 3-{6-(5-chloropyridin-3-yl)-8-[1-(2,6-difluorophenyl)-1-methoxyethyl]-7-[(trans-4-methylcyclohexyl)methyl]-7H-purin-2-yl}-1,2,4-oxadiazol-5(4H)-one], the IC50 worked out at 0.452 nM.

The term IC50 denotes the point on the concentration scale where inhibition reaches its midpoint. High values mean lower potency, low ones higher potency.
